This note sets out measurements from patent US9144239B2, “Macrocyclic picolinamides as fungicides” (DOW AGROSCIENCES LLC, priority 2012, dated 2015).

Molecules are shown by their SMILES. Where two headings read alike, the source gives them in different places.

Common to all, as to assay type: in vivo
Test [1] deals with Mycosphaerella graminicola; anamorph: Septoria tritici. The experiment in a line: Fungicidal activity: leaf blotch of wheat (SEPTTR), wheat seedlings. As to conditions: Zymoseptoria tritici, 100 ppm, wheat. A digest of the protocol: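 Compounds in acetone were diluted with nine volumes of water containing 110 ppm Triton X-100 and sprayed to run-off on Yuma wheat seedlings at first-leaf stage. Septoria tritici spores were inoculated before or after treatment, followed by dew chambers at 100% RH and 20 °C, then greenhouse at 20 °C. Severity (0–100%) was scored once untreated plants were fully diseased; control was calculated relative to untreated plants.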

In another test the test system is Leptosphaeria nodorum. The experiment in a line: Fungicidal activity: wheat glume blotch (LEPTNO). To be noted: Parastagonospora nodorum, 24 h, 1 Day Protectant, read-out: Disease Control LEPTNO 1 DP. Here is the method:
Technical grades of materials were dissolved in acetone, which were then mixed with nine volumes of water containing 110 ppm Triton X-100. The fungicide solutions were applied onto wheat seedlings using an automated booth sprayer to run-off. All sprayed plants were allowed to air dry prior to further handling. Wheat plants (variety Yuma) were grown from seed in a greenhouse in 50% mineral soil/50% soil-less Metro mix until the first leaf was fully emerged, with 7-10 seedlings per pot. These plants were inoculated with an aqueous spore suspension of Septoria tritici either prior to or after fungicide treatments. After inoculation the plants were kept in 100% relative humidity (one day in a dark dew chamber followed by two to three days in a lighted dew chamber at 20° C.) to permit spores to germinate and infect the leaf. The plants were then transferred to a greenhouse set at 20° C. for disease to develop. When disease symptoms were fully expressed on the 1st leaves of untreated plants, infection levels were assessed on a scale of 0 to 100 percent disease severity. Percent disease control was calculated using the ratio of disease severity on treated plants relative to untreated plants. Evaluation of Fungicidal Activity: Wheat Glume Blotch (Leptosphaeria nodorum; Bayer Code […]) Wheat plants (variety Yuma) were grown from seed in a greenhouse in 50% mineral soil/50% soil-less Metro mix until the first leaf was fully emerged, with 7-10 seedlings per pot. These plants were inoculated with an aqueous spore suspension of Leptosphaeria nodorum 24 hr after fungicide treatments. After inoculation the plants were kept in 100% relative humidity (one day in a dark dew chamber followed by two days in a lighted dew chamber at 20° C.) to permit spores to germinate and infect the leaf. The plants were then transferred to a greenhouse set at 20° C. for disease to develop. Fungicide formulation, application and disease assessment followed the procedures as described in the Example A.

The next test relates to Cercospora beticola. Briefly: Fungicidal activity: leaf spot of sugar beets (CERCBE). To be noted: 24 h, 1 Day Protectant, sugar beet, read-out: Disease Control CERCBE 1DP. The procedure: Technical grades of materials were dissolved in acetone, which were then mixed with nine volumes of water containing 110 ppm Triton X-100. The fungicide solutions were applied onto wheat seedlings using an automated booth sprayer to run-off. All sprayed plants were allowed to air dry prior to further handling. Wheat plants (variety Yuma) were grown from seed in a greenhouse in 50% mineral soil/50% soil-less Metro mix until the first leaf was fully emerged, with 7-10 seedlings per pot. These plants were inoculated with an aqueous spore suspension of Septoria tritici either prior to or after fungicide treatments. After inoculation the plants were kept in 100% relative humidity (one day in a dark dew chamber followed by two to three days in a lighted dew chamber at 20° C.) to permit spores to germinate and infect the leaf. The plants were then transferred to a greenhouse set at 20° C. for disease to develop. When disease symptoms were fully expressed on the 1st leaves of untreated plants, infection levels were assessed on a scale of 0 to 100 percent disease severity. Percent disease control was calculated using the ratio of disease severity on treated plants relative to untreated plants. Evaluation of Fungicidal Activity: Leaf Spot of Sugar Beets (Cercospora beticola; Bayer Code CERCBE) Sugar beet plants (variety HH88) were grown in soil-less Metro mix and trimmed regularly to maintain a uniform plant size prior to test. Plants were inoculated with a spore suspension 24 hr after fungicide treatments. Inoculated plants were kept in a dew chamber at 22° C. for 48 hr then incubated in a greenhouse set at 24° C. under a clear plastic hood with bottom ventilation until disease symptoms were fully expressed. Fungicide formulation, application and disease assessment on the sprayed leaves followed the procedures as described in the Example A.

Test [2] deals with Magnaporthe grisea; anamorph: Pyricularia oryzae. Briefly: whole plant or invertebrate. As to conditions: 24 h, read-out: Disease Control PYRIOR 1 DP.
Test [3] concerns Glomerella lagenarium; anamorph: Colletotrichum lagenarium. The experiment in a line: Fungicidal activity: cucumber anthracnose (COLLLA). As to conditions: Colletotrichum orbiculare, 24 h, 1 Day Protectant, read-out: Disease Control COLLLA 1DP. The procedure:
Technical grades of materials were dissolved in acetone, which were then mixed with nine volumes of water containing 110 ppm Triton X-100. The fungicide solutions were applied onto wheat seedlings using an automated booth sprayer to run-off. All sprayed plants were allowed to air dry prior to further handling. Wheat plants (variety Yuma) were grown from seed in a greenhouse in 50% mineral soil/50% soil-less Metro mix until the first leaf was fully emerged, with 7-10 seedlings per pot. These plants were inoculated with an aqueous spore suspension of Septoria tritici either prior to or after fungicide treatments. After inoculation the plants were kept in 100% relative humidity (one day in a dark dew chamber followed by two to three days in a lighted dew chamber at 20° C.) to permit spores to germinate and infect the leaf. The plants were then transferred to a greenhouse set at 20° C. for disease to develop. When disease symptoms were fully expressed on the 1st leaves of untreated plants, infection levels were assessed on a scale of 0 to 100 percent disease severity. Percent disease control was calculated using the ratio of disease severity on treated plants relative to untreated plants. Evaluation of Fungicidal Activity: Cucumber Anthracnose (Glomerella lagenarium; Anamorph: Colletotrichum lagenarium; Bayer Code COLLLA) Cucumber seedlings (variety Bush Pickle) were propagated in soil-less Metro mix, with each pot having one plant, and used in the test when 12 to 14 days old. Test plants were inoculated with an aqueous spore suspension of Colletotrichum lagenarium 24 hr after fungicide treatments. After inoculation the plants were kept in a dew room at 22° C. with 100% relative humidity for 48 hr to permit spores to germinate and infect the leaf. The plants were then transferred to a growth room set at 22° C. for disease to develop. Fungicide formulation, application and disease assessment on the sprayed leaves followed the procedures as described in the Example A.

The mark [4] stands for this setting: 24 h, 1 Day Protectant, read-out: Disease Control SEPTTR 1DP.
The mark [5] stands for this setting: 72 h, 3 Day Curative, read-out: Disease Control SEPTTR 3DC.

As for `COc1ccnc(C(=O)N[C@H]2COC[C@H](OCCCc3ccccc3)[C@@H](OCCCc3ccccc3)[C@H](C)OC2=O)c1OCOC(C)=O` [Compound 60], the pest or weed control at 100 ppm in test [1] (setting [4]) was in the range of 80 to 100%; in test [1] (setting [5]), 0 to 80%; with Leptosphaeria nodorum, 80 to 100%; in the test with Cercospora beticola, 80 to 100%; in test [2], 80 to 100%; in test [3], 80 to 100%.

In the case of `CCC(C)(C)O[C@H]1COC[C@H](NC(=O)c2nccc(OC)c2OCOC(C)=O)C(=O)O[C@@H](C)[C@@H]1OCC(C)C` [Compound 78], the pest or weed control at 100 ppm is 80 to 100% in test [1] (setting [4]); 80 to 100% in test [1] (setting [5]); 80 to 100% with Leptosphaeria nodorum; 0 to 80% in the test with Cercospora beticola; 80 to 100% in test [2]; 80 to 100% in test [3].

Regarding `COc1ccnc(C(=O)N[C@H]2COC[C@H](OCCCC(F)(F)F)[C@@H](OCCCC(F)(F)F)[C@H](C)OC2=O)c1OCOC(C)=O` [Compound 68], the pest or weed control at 100 ppm (in test [1] (setting [4]); in test [1] (setting [5]); in the test with Leptosphaeria nodorum; in the test on Cercospora beticola; in test [2]; in test [3]) was 80 to 100% each time.

As for `COc1ccnc(C(=O)N[C@H]2COC[C@H](Oc3ccccc3)[C@@H](OCC(C)C)[C@H](C)OC2=O)c1OCOC(C)=O` [Compound 86], the pest or weed control at 100 ppm (in test [1] (setting [4]); in test [1] (setting [5]); in the test on Leptosphaeria nodorum; in the test with Cercospora beticola; in test [2]; in test [3]) was 80 to 100% in each case.
